Assay results as given in patent US5610003A, “Two-equivalent magenta photographic couplers with activity-modifying ballasting groups” (Eastman Kodak Company, priority 1995, dated 1997).

Legend:
[1] = Taft steric parameter Es of sterically hindering group; format: physicochemical; design: key: Taft steric parameter Es, referenced to H = 0 (more negative = bulkier)
Description: Y is a monovalent organic group which sterically hinders leuco dye formation. The sterically hindering group is characterizedby a negative Es value greater than the absolute value of -1.5 and more preferably greater than the absolute value of -2.0. The Es value refers to the Taft steric parameter, referenced to H=O and defined as: […]
where k refers to the rate constant for the acid hydrolysis of esters of the type X--CH2 COOR and 1.24 is the hydrolysis rate of formate. A detailed description of this parameter is provided by S. H. Unger and C. Hansch, Prog. Phys. Org. Chem., 12, 91 (1976).

[2] = π value of R^4 group; format: physicochemical; design: key: π from partition coefficients of derivative (Px) vs parent (PH); details: substituent R^4
Experimental: R^4 is a monovalent organic group with a π value of at least 2.1. As used herein, the π value is determined by the equation: […]
where Px is the partition coefficient of a derivative and PH is the partition coefficient of the parent compound. A detailed description of the determination of the π value is provided by A. Leo, C. Hansch and D. Elkins, Chem. Rev., 71, 525 (1971).

Structure (SMILES)	Es Value for Sterically Hindering Group [1]	π Value for R^4 [2]
CCCCCCC(Oc1ccc(C(C)(C)CC(C)(C)C)cc1C(C)(C)CC(C)(C)C)C(=O)NC1=NN(c2c(Cl)cc(Cl)cc2Cl)C(=O)C1n1cccn1 (stereo not drawn) [Example 1]	-2.6	3.2
CCCCCCCCC(Oc1ccc(C(C)(C)CC(C)(C)C)cc1C(C)(C)CC(C)(C)C)C(=O)NC1=NN(c2c(Cl)cc(Cl)cc2Cl)C(=O)C1n1cccn1 (stereo not drawn) [Example 2]	-2.6	4.3
CCCCCCCCCCCCC(Oc1ccc(C(C)(C)CC(C)(C)C)cc1C(C)(C)CC(C)(C)C)C(=O)NC1=NN(c2c(Cl)cc(Cl)cc2Cl)C(=O)C1n1cccn1 (stereo not drawn) [Example 3]	-2.6	6.5
CCCCC(Oc1ccc(C(C)(C)CC)cc1C(C)(C)CC)C(=O)NC1=NN(c2c(Cl)cc(Cl)cc2Cl)C(=O)C1n1cccn1 (stereo not drawn) [Example 4]	-3.0	2.1
CCCCCCC(Oc1ccc(C(C)(C)CC)cc1C(C)(C)CC)C(=O)NC1=NN(c2c(Cl)cc(Cl)cc2Cl)C(=O)C1n1cccn1 (stereo not drawn) [Example 5]	-3.0	3.2
CCCCCCCCC(Oc1ccc(C(C)(C)CC)cc1C(C)(C)CC)C(=O)NC1=NN(c2c(Cl)cc(Cl)cc2Cl)C(=O)C1n1cccn1 (stereo not drawn) [Example 6]	-3.0	4.3
CCCCCCCCCCCCC(Oc1ccc(C(C)(C)CC)cc1C(C)(C)CC)C(=O)NC1=NN(c2c(Cl)cc(Cl)cc2Cl)C(=O)C1n1cccn1 (stereo not drawn) [Example 7]	-3.0	6.5
CCCCCCCCCCCCCCCCC(Oc1ccc(C(C)(C)CC)cc1C(C)(C)CC)C(=O)NC1=NN(c2c(Cl)cc(Cl)cc2Cl)C(=O)C1n1cccn1 (stereo not drawn) [Example 8]	-3.0	8.6
CCCCCCC(Oc1cc2c(cc1C(C)(C)CC(C)(C)C)OC(C)(C)CC2(C)C)C(=O)NC1=NN(c2c(Cl)cc(Cl)cc2Cl)C(=O)C1n1cccn1 (stereo not drawn) [Example 9]	-2.6	4.3
CCCCCCCCCCCCC(Oc1ccc(CCCCC)cc1CCCCC)C(=O)NC1=NN(c2c(Cl)cc(Cl)cc2Cl)C(=O)C1n1cccn1 (stereo not drawn) [Example 10]	-1.6	6.5
CCCCCCCCCCCCC(Oc1cc(C(C)(C)C)cc(C(C)(C)C)c1)C(=O)NC1=NN(c2c(Cl)cc(Cl)cc2Cl)C(=O)C1n1cccn1 (stereo not drawn) [Example 11]	-2.8	6.5
CCC(C)(C)c1ccc(Oc2ccc([N+](=O)[O-])cc2C(=O)NC2=NN(c3c(Cl)cc(Cl)cc3Cl)C(=O)C2n2cccn2)c(C(C)(C)CC)c1 (stereo not drawn) [Example 12]	-3.0	
CCCCCCCCCCCC(=O)Nc1ccc(Oc2ccc(C(C)(C)CC)cc2C(C)(C)CC)c(C(=O)NC2=NN(c3c(Cl)cc(Cl)cc3Cl)C(=O)C2n2cccn2)c1 (stereo not drawn) [Example 13]	-3.0	
CCCCCCCCCCC(Oc1ccc(S(=O)(=O)c2ccc(OCc3ccccc3)cc2)cc1)C(=O)Nc1ccc(Oc2ccc(C(C)(C)CC)cc2C(C)(C)CC)c(C(=O)NC2=NN(c3c(Cl)cc(Cl)cc3Cl)C(=O)C2n2cccn2)c1 (stereo not drawn) [Example 14]	-3.0	
CCC(C)(C)c1ccc(OCC(=O)Nc2ccc(Oc3ccc(C(C)(C)CC)cc3C(C)(C)CC)c(C(=O)NC3=NN(c4c(Cl)cc(Cl)cc4Cl)C(=O)C3n3cccn3)c2)c(C(C)(C)CC)c1 (stereo not drawn) [Example 15]	-3.0	
CCCCCCCCCCCCC(Oc1ccc(C)cc1C(C)(C)CC(C)(C)C)C(=O)NC1=NN(c2c(Cl)cc(Cl)cc2Cl)C(=O)C1n1cccn1 (stereo not drawn) [Example 16]	-2.6	6.5
CCCCCCCCCCCCC(Oc1ccc(C(C)(C)CC(C)(C)C)cc1)C(=O)NC1=NN(c2c(Cl)cc(Cl)cc2Cl)C(=O)C1n1cccn1 (stereo not drawn) [Example 17]	-2.6	6.5
